These results are taken from BindingDB's records for patent US20250326790 (University of Southampton, 2025).

The assay addresses T1, Hypoxia-inducible factor 1-alpha [228-298] (Homo sapiens, UniProt Q16665).
T1 construct: 228-298
Kind of assay: Assessment of HIF-1α and 2α Binding Activity in In Vitro Assays.

Where a SMILES comes first, the peptide text is derived from it. [ ]: non-standard residue; d: D form. The star is where a group is joined. Phe(4-I) = N[C@@H](Cc1ccc(I)cc1)C(=O)O; hLeu = CC(C)CC[C@H](N)C(=O)O; Isobutyryl = CC(C)C(=O)*

T1 sequence (Q16665 whole entry): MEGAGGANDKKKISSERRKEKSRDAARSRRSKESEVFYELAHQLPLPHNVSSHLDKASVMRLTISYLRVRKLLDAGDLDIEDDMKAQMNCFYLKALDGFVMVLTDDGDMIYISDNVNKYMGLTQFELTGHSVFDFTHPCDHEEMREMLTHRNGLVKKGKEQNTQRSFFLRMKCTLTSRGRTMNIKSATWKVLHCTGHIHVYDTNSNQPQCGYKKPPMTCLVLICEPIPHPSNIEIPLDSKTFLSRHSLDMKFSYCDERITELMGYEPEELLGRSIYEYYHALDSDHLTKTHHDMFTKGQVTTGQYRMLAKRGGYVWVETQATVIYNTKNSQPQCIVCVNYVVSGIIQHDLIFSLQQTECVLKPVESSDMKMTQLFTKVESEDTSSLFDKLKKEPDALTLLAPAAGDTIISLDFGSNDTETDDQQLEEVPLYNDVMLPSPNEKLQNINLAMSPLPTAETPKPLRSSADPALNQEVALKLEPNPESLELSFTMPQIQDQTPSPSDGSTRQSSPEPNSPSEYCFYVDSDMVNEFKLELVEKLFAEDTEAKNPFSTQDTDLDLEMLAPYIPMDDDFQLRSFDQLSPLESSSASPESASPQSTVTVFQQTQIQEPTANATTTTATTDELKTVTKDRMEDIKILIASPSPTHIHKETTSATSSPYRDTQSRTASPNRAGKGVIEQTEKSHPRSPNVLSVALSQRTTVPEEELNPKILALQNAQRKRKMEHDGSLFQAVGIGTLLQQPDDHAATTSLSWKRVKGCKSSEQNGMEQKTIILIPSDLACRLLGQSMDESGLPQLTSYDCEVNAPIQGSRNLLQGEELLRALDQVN
Description: MST experiments were performed on a Monolith NT.115 system (Nanotemper Technologies GmbH), in assay buffer containing 50 nM labelled protein, 10% DMSO and 0.05% TWEEN-20. MST measurements were performed using 50% LED and 50% MST power.

Usually Kd stands for a measure of binding affinity in units of concentration. The low end stands for tighter binding, the high end for weaker binding. `CC(C)CC[C@H](NS(=O)(=O)c1ccc(Cl)s1)C(=O)N[C@@H](Cc1ccc(I)cc1)C(=O)N[C@@H](CS)C(=O)NCCCCCCN` [US20250326790, Example 41] had an equilibrium dissociation constant (Kd) greater than 100 µM.

As for `CC(C)CC[C@H](NC(=O)C(C)C)C(=O)N[C@@H](Cc1ccc(I)cc1)C(=O)N[C@@H](CS)C(N)=O` [US20250326790, Example 1] (Isobutyryl-[hLeu]-[Phe(4-I)]-Cys-NH2), the Kd was greater than 40 µM.
